This experiment has as its system SARS-CoV-2 (USA-WA1/2020) in Calu-3 cells. The experiment is classed as cell-based. The note with it: Calu-3, 48 h; for dsRNA signal, AU High: high dose (10 µM); for dsRNA signal, AU Low: low dose (100 nM).

Counter-ions that a name gives are not always drawn.

Consider `O=C1NC(=NCc2cccs2)S/C1=C\c1ccc2ncccc2c1` [Ro 3306], for which the “dsRNA signal, AU High” value was 2807.1 AU and the “dsRNA signal, AU Low” value worked out at 25048.4 AU.
The matching figures for `O=C(/C=C/c1ccc(O)c(O)c1)O[C@H](Cc1ccc(O)c(O)c1)C(=O)O` [Rosmarinic acid]: 3864.4 AU and 42457.9 AU.
On to `C[C@@H]1COCCN1c1cc(=O)n2c(n1)N(Cc1cncc(Cl)c1)[C@H](C(F)(F)F)CC2` [SAR405], for which the “dsRNA signal, AU High” value came out at 1587.9 AU and the “dsRNA signal, AU Low” value worked out at 23454.9 AU.
Consider `CCn1c(N)c(C(=O)NC)c(=O)c2ccc(C#C[C@@](C)(O)COC)nc21` [SAR131675], for which the “dsRNA signal, AU High” value amounted to 44218.5 AU and the “dsRNA signal, AU Low” value stood at 34484.3 AU.
Take `CN1C/C=C/CCOc2cccc(c2)-c2ccnc(n2)Nc2cccc(c2)C1` [SB1317]: the “dsRNA signal, AU High” value is reported as 1210.9 AU and the “dsRNA signal, AU Low” value stood at 26680.2 AU.
For `Oc1ccc(-c2nc(-c3ccc(F)cc3)c(-c3ccncc3)[nH]2)cc1` [SB202190 (FHPI)], the “dsRNA signal, AU High” value turned out to be 29217.1 AU and the “dsRNA signal, AU Low” value came out at 9508.1 AU.
The matching figures for `Cc1cccc(-c2[nH]c(C(C)(C)C)nc2-c2ccc3nccnc3c2)n1` [SB525334]: 34680.3 AU and 27941.4 AU.
With `Cn1cc(C2=C(c3ccc(Cl)cc3Cl)C(=O)NC2=O)c2ccccc21` [SB 216763], the “dsRNA signal, AU High” value is on record as 596.7 AU and the “dsRNA signal, AU Low” value came out at 53506.5 AU.
`COc1nccc(-c2c(-c3ccc(F)cc3)ncn2C2CCC(O)CC2)n1` (stereo not drawn) [SB 239063]: the “dsRNA signal, AU High” value worked out at 16458.2 AU and the “dsRNA signal, AU Low” value is on record as 15855.6 AU.
The matching figures for `NC(=O)c1ccc(-c2nc(-c3ccc4c(c3)OCO4)c(-c3ccccn3)[nH]2)cc1` [SB 431542]: 540.4 AU and 12958.4 AU.
Taken in the same sequence, the figures for `O=C(Nc1ccc2[nH]nc(-c3ccncc3)c2c1)[C@@H]1CCN(CC(=O)N2CCN(c3ccc(-c4ncccn4)cc3)CC2)C1` [SCH772984] were 21169.8 AU and 17905.7 AU.
The matching figures for `CC(C)(C)C(=O)Nc1ccc2c(c1)C(=O)C(=O)c1ccccc1-2` [SF1670]: 30745.4 AU and 12301.2 AU.
Consider `CN1CCC(CNc2ccc3ncc(-c4cccc(OC(F)(F)F)c4)n3n2)CC1` [SGI-1776 free base], for which the “dsRNA signal, AU High” value was determined as 1583.1 AU and the “dsRNA signal, AU Low” value is given as 29976.5 AU.
As for `Cn1cc(-c2ccc3nnc(Sc4ccc5ncccc5c4)n3n2)cn1` [SGX-523], the “dsRNA signal, AU High” value is listed as 18702.9 AU and the “dsRNA signal, AU Low” value came to 25732.4 AU.
As to `Oc1ccc(Nc2nc(-c3ccc(Cl)cc3)cs2)cc1` [SKI II], the “dsRNA signal, AU High” value is listed as 31334.0 AU and the “dsRNA signal, AU Low” value is recorded as 21341.0 AU.
As to `CNC(=O)c1cc(Oc2ccc(NC(=O)c3cccc(C(F)(F)F)c3)cc2)ccn1` [SKLB610], the “dsRNA signal, AU High” value stood at 126.4 AU and the “dsRNA signal, AU Low” value was 8430.0 AU.
Consider `N#C/C(=C(/N)Sc1ccc(N)cc1)c1ccccc1C(F)(F)F` [SL-327], for which the “dsRNA signal, AU High” value was 10911.9 AU and the “dsRNA signal, AU Low” value came to 24198.7 AU.
The matching figures for `CC(C)NC(=O)COc1cccc(-c2nc(Nc3ccc4[nH]ncc4c3)c3ccccc3n2)c1` [SLx-2119]: 20785.5 AU and 59494.3 AU.
`O=C1NC(=O)/C(=C/c2cccc(C(F)(F)F)c2)S1` [SMI-4a]: the “dsRNA signal, AU High” value is 0.0 AU and the “dsRNA signal, AU Low” value is listed as 12244.4 AU.
Consider `O=C(Nc1cccc(Cl)c1)Nc1ncc(CCNc2ncnc3ccsc23)s1` [SNS-314 Mesylate], for which the “dsRNA signal, AU High” value was found to be 5716.5 AU and the “dsRNA signal, AU Low” value is listed as 33317.4 AU.
Regarding `O=C(Nc1cc(C(F)(F)F)ccc1N1CCCCC1)c1ccncc1` [SRPIN340], the “dsRNA signal, AU High” value was 38969.9 AU and the “dsRNA signal, AU Low” value was found to be 6071.8 AU.
Consider `COc1c(C)c(C(=O)c2ccc(N)c(C(=O)[O-])c2)n2ccccc12.[Na+]` [SSR128129E], for which the “dsRNA signal, AU High” value stood at 4736.0 AU and the “dsRNA signal, AU Low” value came out at 27624.5 AU.
The matching figures for `O=S(=O)(N=Cc1c(O)ccc2ccccc12)c1cccs1` [STF 083010]: 54363.2 AU and 46405.9 AU.
The matching figures for `Cc1cc(C)c(/C=C2\C(=O)Nc3ccccc32)[nH]1` [SU5416]: 39551.1 AU and 20455.1 AU.
For the compound `O=C(/C=C/c1ccccc1)NC(NC(=S)Nc1ccc(Cl)cc1)C(Cl)(Cl)Cl` (stereo not drawn) [Sal 003], the “dsRNA signal, AU High” value is 58234.6 AU and the “dsRNA signal, AU Low” value is 61292.8 AU.
In the case of `OC[C@H]1O[C@@H](OCCc2ccc(O)cc2)[C@H](O)[C@@H](O)[C@@H]1O` [Salidroside], the “dsRNA signal, AU High” value was found to be 19295.0 AU and the “dsRNA signal, AU Low” value came to 56220.3 AU.
The matching figures for `C[n+]1cc2c3c(ccc2c2ccc4cc5c(cc4c21)OCO5)OCO3` [Sanguinarine chloride]: 0.0 AU and 15548.2 AU.
Taken in the same sequence, the figures for `C[n+]1cc2c3c(ccc2c2ccc4cc5c(cc4c21)OCO5)OCO3` [Sanguinarine] were 0.0 AU and 895.9 AU.
For the compound `O=C(O)[C@H]1O[C@@H](Oc2cc3oc(-c4ccc(O)cc4)cc(=O)c3c(O)c2O)[C@H](O)[C@@H](O)[C@@H]1O` [Scutellarin], the “dsRNA signal, AU High” value amounted to 1769.9 AU and the “dsRNA signal, AU Low” value is given as 52840.4 AU.
For the compound `N#Cc1ccc2ncnc(NCCc3ccccc3)c2c1` [Senexin A], the “dsRNA signal, AU High” value is 30520.6 AU and the “dsRNA signal, AU Low” value was found to be 31796.6 AU.
In the case of `O=C(O)c1cc(O)c2c(c1)[C@@H]([C@H]1c3cc(C(=O)O)cc(O)c3C(=O)c3c(O[C@@H]4O[C@H](CO)[C@@H](O)[C@H](O)[C@H]4O)cccc31)c1cccc(O[C@@H]3O[C@H](CO)[C@@H](O)[C@H](O)[C@H]3O)c1C2=O` [Sennoside B], the “dsRNA signal, AU High” value is 3953.3 AU and the “dsRNA signal, AU Low” value worked out at 3310.7 AU.
Take `CC(C)=CC[C@@H](O)C1=CC(=O)c2c(O)ccc(O)c2C1=O` [Shikonin]: the “dsRNA signal, AU High” value was determined as 54262.1 AU and the “dsRNA signal, AU Low” value is reported as 4009.3 AU.
Regarding `CN1CCN(c2nc(C3=C(c4c[nH]c5ccccc45)C(=O)NC3=O)c3ccccc3n2)CC1` [Sotrastaurin (AEB071)], the “dsRNA signal, AU High” value is reported as 6965.2 AU and the “dsRNA signal, AU Low” value is listed as 40818.2 AU.
Take `COc1cc(N2CCC(N3CCN(C)CC3)CC2)ccc1Nc1ncc(Cl)c(Nc2ccccc2S(=O)(=O)C(C)C)n1` [TAE684 (NVP-TAE684)]: the “dsRNA signal, AU High” value came out at 41419.4 AU and the “dsRNA signal, AU Low” value is recorded as 4182.3 AU.
Take `COc1cc(C(=O)NC2CCN(C)CC2)c(F)cc1Nc1ncc2c(n1)N(C1CCCC1)CC(F)(F)C(=O)N2C` [TAK960]: the “dsRNA signal, AU High” value is 9929.6 AU and the “dsRNA signal, AU Low” value stood at 56355.2 AU.
Taken in the same sequence, the figures for `N#Cc1c(Oc2ccc(F)c(NC(=O)Cc3cccc(C(F)(F)F)c3)c2)ccc2nc(NC(=O)C3CC3)sc12` [TAK-632] were 12667.4 AU and 8796.8 AU.
Taken in the same sequence, the figures for `CCc1nc(-c2cccc(C)c2)c(-c2ccnc(NC(=O)c3ccccc3)c2)s1` [TAK-715] were 42569.8 AU and 29513.1 AU.
The matching figures for `CCS(=O)(=O)c1cccc(-c2cc(C(=O)NC3CCN(C)CC3)c(C)c3[nH]c4ncc(C)cc4c23)c1` [TAK-901]: 42486.6 AU and 61332.6 AU.
For `Brc1c(Br)c(Br)c2n[nH]nc2c1Br` [TBB], the “dsRNA signal, AU High” value turned out to be 3323.3 AU and the “dsRNA signal, AU Low” value stood at 16520.0 AU.
Regarding `COc1ccc(C(=O)Nc2sc3c(c2C(N)=O)CCCC3)cc1OC` [TCS 359], the “dsRNA signal, AU High” value is recorded as 5896.0 AU and the “dsRNA signal, AU Low” value was 63380.8 AU.
As for `N#Cc1c(NC(=O)c2cccc3ccccc23)sc2c1CCCC2` [TCS JNK 5a], the “dsRNA signal, AU High” value was determined as 1144.9 AU and the “dsRNA signal, AU Low” value was determined as 17159.4 AU.
The matching figures for `N#Cc1c(-c2ccccc2)cc(-c2cc(Br)ccc2O)[nH]c1=O` [TCS PIM-1 1]: 1935.2 AU and 16463.0 AU.
Taken in the same sequence, the figures for `O=C1NC(=O)/C(=C/c2cccc(C(F)(F)F)c2)S1` [TCS-PIM-1-4a] were 1917.5 AU and 12250.9 AU.
`Cn1sc(=O)n(Cc2ccccc2)c1=O` [TDZD-8]: the “dsRNA signal, AU High” value worked out at 7580.3 AU and the “dsRNA signal, AU Low” value is 26092.4 AU.
For the compound `CCN1/C(=C/C(C)=O)Sc2ccc(OC)cc21` [TG003], the “dsRNA signal, AU High” value is 1126.7 AU and the “dsRNA signal, AU Low” value is recorded as 61445.9 AU.
`Nc1nc(N)c2nc(-c3cccc(O)c3)c(-c3cccc(O)c3)nc2n1` [TG100-115]: the “dsRNA signal, AU High” value worked out at 401.6 AU and the “dsRNA signal, AU Low” value was 17405.4 AU.
`Cc1ccccc1CN1C(=O)C2=C(CCN(Cc3ccccc3)C2)N2CCN=C12` [TIC10]: the “dsRNA signal, AU High” value is reported as 0.0 AU and the “dsRNA signal, AU Low” value turned out to be 1481.6 AU.
The matching figures for `Cc1[nH]c(/C=C2\C(=O)Nc3ccccc32)c(C)c1CCC(=O)O` [TSU-68 (SU6668,Orantinib)]: 4841.4 AU and 21696.8 AU.
Taken in the same sequence, the figures for `Nc1cccc(-c2cc3c(Oc4cccc(O)c4)ncnc3[nH]2)c1` [TWS119] were 48959.2 AU and 29417.1 AU.
`COc1cc2c(N3CCN(C(=O)Nc4ccc(OC(C)C)cc4)CC3)ncnc2cc1OCCCN1CCCCC1.Cl` [Tandutinib (MLN518) HCl]: the “dsRNA signal, AU High” value turned out to be 42444.4 AU and the “dsRNA signal, AU Low” value came out at 13615.8 AU.
As to `O=C(NCc1ccccc1)c1csc(Nc2ccncn2)n1` [Thiazovivin], the “dsRNA signal, AU High” value is recorded as 2364.1 AU and the “dsRNA signal, AU Low” value is on record as 26827.3 AU.

For the origin of these results see publication PMC12142043, “Cell-based high-content approach for SARS-CoV-2 neutralization identifies unique monoclonal antibodies and PI3K pathway inhibitors” (Frontiers in Cell and Developmental Biology, 2025).
